In the RepoRT retention time repository (doi:10.1007/s11306-011-0298-z):

Test: RP, Waters ACQUITY UPLC HSS T3, 100 × 2.1 mm, 1.8 µm, 30 °C, 0.3 mL/min, estimated dead time 0.73 min; A: water + 0.1% formic acid, pH 3; B: methanol + 0.1% formic acid, pH 3; gradient (min/%B) 0/0 6/0 56/100 60/100
Details: stereoisomer not certain

| Compound | LC retention time [min] |
| --- | --- |
| O=C(O)CCCCC(=O)O [adipic acid] | 15.5 |
| OCC(O)C(O)C(O)CO (stereo not given) [adonitol] | 1.38 |
| OCC1OC(O)C(O)C(O)C1O (stereo not given) [allose] | 1.35 |
| Cc1c(C)c2c(c(C)c1O)CCC(C)(CCCC(C)CCCC(C)CCCC(C)C)O2 (stereo not drawn) [alpha-tocopherol] | 59.2 |
| O=CC(O)C(O)C(O)C(O)CO (stereo not given) [altrose] | 1.43 |
| Oc1ccc(C2Oc3cc(O)c4c(c3C2c2cc(O)cc(O)c2)C2C(c3ccc(O)cc3)c3c(O)cc5c(c3C2C4c2ccc(O)cc2)C(c2cc(O)cc(O)c2)C(c2ccc(O)cc2)O5)cc1 (stereo not given) [ampelopsin H] | 29.8 |
| N#CC(OC1OC(COC2OC(CO)C(O)C(O)C2O)C(O)C(O)C1O)c1ccccc1 (stereo not given) [amygdalin] | 19.3 |
| COc1ccc(C=O)cc1 [anisaldehyde] | 27.1 |
| Nc1ccccc1C(=O)O [anthranilic acid] | 19.1 |
| O=CC(O)C(O)C(O)CO (stereo not given) [arabinose] | 1.41 |
| CCCCCC=CCC=CCC=CCC=CCCCC(=O)O [arachidonic acid] | 53.5 |
| OCC1OC(Oc2ccc(O)cc2)C(O)C(O)C1O (stereo not given) [arbutin] | 7.61 |
| CC1=C(C=CC(C)O)C(C)(C)CCC1 (stereo not given) [b-ionol] | 46.3 |
| CCCCCCCCCCCCCCCCCCCCCC(=O)O [behenic acid] | 58.7 |
| O=C(O)c1ccccc1 [benzoic acid] | 26.2 |
| O=C(OCc1ccccc1)c1ccccc1 [benzyl benzoate] | 43.5 |
| C[N+](C)(C)CC(=O)[O-] [betaine] | 1.38 |
| C=C(C)C1CCC2(C(=O)O)CCC3(C)C(CCC4C5(C)CCC(O)C(C)(C)C5CCC43C)C12 (stereo not given) [betulinic acid] | 53.2 |
| C=CC1=C(C)C(=Cc2[nH]c(Cc3[nH]c(C=C4NC(=O)C(C)=C4C=C)c(C)c3CCC(=O)O)c(CCC(=O)O)c2C)NC1=O [bilirubin] | 56.4 |
| O=C(O)CCCCC1SCC2NC(=O)NC21 (stereo not given) [biotin] | 21.6 |
| NCCCCCN [cadaverine] | 1.1 |
| Cn1c(=O)c2c(ncn2C)n(C)c1=O [caffeine] | 20.4 |
| CC12CCC(CC1=O)C2(C)C (stereo not given) [camphor] | 36.5 |
| OCC1OC(OC2C(CO)OC(O)C(O)C2O)C(O)C(O)C1O (stereo not given) [cellobiose] | 1.55 |

| Compound | LC retention time [min] |
| --- | --- |
| CC(CCC(=O)O)C1CCC2C3C(O)CC4CC(O)CCC4(C)C3CCC12C (stereo not given) [chenodeoxycholic acid] | 49.4 |
| C=CC1CN2CCC1CC2C(O)c1ccnc2ccccc12 (stereo not given) [chinchonidine sulphate] | 19.1 |
| CC(C)CCCC(C)C1CCC2C3CC=C4CC(O)CCC4(C)C3CCC12C (stereo not given) [cholesterol] | 60.2 |
| CC(CCC(=O)O)C1CCC2C3C(O)CC4CC(O)CCC4(C)C3CC(O)C12C (stereo not given) [cholic acid] | 46.8 |
| C[N+](C)(C)CCO [choline] | 1.4 |
| O=C(O)C=Cc1ccccc1 [cinnamic acid] | 31.8 |
| CCCCCCCC/C=C\CCCCCCCCCC(=O)O [cis-11-eicosenoic acid] | 56.2 |
| O=C(O)C=C(CC(=O)O)C(=O)O [cis-acotinic acid] | 4.4 |
| CC(O)(CC(=O)O)C(=O)O (stereo not given) [citramalic acid] | 5.18 |
| O=C(O)CC(O)(CC(=O)O)C(=O)O [citric acid] | 3.91 |
| CC(C)c1ccc(C=O)cc1 [cuminaldehyde] | 38.6 |
| CCCCCCCCCC(=O)O [decanoic acid] | 45.6 |
| O=C1OC(C(O)CO)C(=O)C1=O (stereo not given) [dehydroascorbic acid] | 1.72 |
| CC(CCC(=O)O)C1CCC2C3CCC4CC(O)CCC4(C)C3CC(O)C12C (stereo not given) [deoxycholic acid] | 49.6 |
| CCNCC [diethylamine] | 1.68 |
| CC(=O)C=CC1C(C)CCCC1(C)C (stereo not drawn) [dihidro alpha ionone] | 46.1 |
| CC(C)C(C)C=CC(C)C1CCC2C3=CC=C4CC(O)CCC4(C)C3CCC21C (stereo not given) [ergosterol] | 58.9 |
| CC1(C)CCC2(CO)CCC3(C)C(=CCC4C5(C)CCC(O)C(C)(C)C5CCC43C)C2C1 (stereo not given) [erythrodiol] | 53.8 |
| O=c1ccc2cc(OC3OC(CO)C(O)C(O)C3O)c(O)cc2o1 (stereo not given) [esculin] | 17.8 |
| CCOC(=O)Cc1c[nH]c2ccccc12 [ethyl indole-3-acetate] | 35.5 |
| CCCCCC=CCC=CCCCCCCCC(=O)OCC [ethyl linoleate] | 56.1 |
| CCCCCCCCCCCCCC(=O)OCC [ethyl tetradecanoate] | 55.1 |
| C=CCc1ccc(OC(C)=O)c(OC)c1 [eugenyl acetate] | 38.3 |

Second part, the molecule after the results:

| LC retention time [min] | Compound |
| --- | --- |
| 26.2 | Oc1ccc(C=C2c3cc(O)cc(O)c3C(c3ccc(O)cc3)C2c2cc(O)cc(O)c2)cc1 (stereo not given) [ampelopsin D + quadrangularin A] |
| 28.9 | O=c1cc(-c2ccc(O)cc2)oc2cc(OC3OC(CO)C(O)C(O)C3O)cc(O)c12 (stereo not given) [apigenin-7-O-glucoside] |
| 37.1 | O=c1cc(-c2ccc(O)cc2)oc2cc(O)cc(O)c12 [apigenin] |
| 29.6 | O=c1cc(-c2ccc(O)cc2)oc2cc(OC3OC(CO)C(O)C(O)C3OC3OCC(O)(CO)C3O)cc(O)c12 (stereo not given) [apiin] |
| 22.7 | OCC1OC(Oc2cc(O)cc(C=Cc3ccc(O)c(O)c3)c2)C(O)C(O)C1O (stereo not given) [astringin] |
| 36.6 | O=c1cc(-c2ccccc2)oc2cc(O)c(O)c(O)c12 [baicalein] |
| 19.6 | O=C(O)c1ccc(O)cc1O [beta-resorcylic acid] |
| 26.1 | O=C1CC(c2ccc(O)c(O)c2)c2c(cc(O)c3c2OC(c2ccc(O)c(O)c2)C(O)C3)O1 (stereo not given) [caffeic acid+catechin condensation product] |
| 15.5 | O=C(C=Cc1ccc(O)c(O)c1)OC(C(=O)O)C(O)C(=O)O (stereo not given) [caftaric acid] |
| 18 | O=C(C=Cc1ccc(O)c(O)c1)OC1CC(O)(C(=O)O)CC(O)C1O (stereo not given) [chlorogenic acid] |
| 40.9 | O=c1cc(-c2ccccc2)oc2cc(O)cc(O)c12 [chrysin] |
| 27.2 | OCC1OC(Oc2cc(O)cc(C=Cc3ccc(O)cc3)c2)C(O)C(O)C1O (stereo not drawn) [cis-piceid] |
| 30.4 | Oc1ccc(/C=C\c2cc(O)cc(O)c2)cc1 [cis-resveratrol] |
| 22.8 | COc1cc(C=CCO)ccc1O [coniferyl alcohol] |
| 25.9 | COc1cc(C=CC=O)ccc1O [coniferyl aldehyde] |
| 20.1 | O=C(C=Cc1ccc(O)c(O)c1)OC1C(O)CC(O)(C(=O)O)CC1O (stereo not given) [cryptochlorogenic acid] |
| 22.1 | OCC1OC(Oc2cc3c(O)cc(O)cc3[o+]c2-c2ccc(O)c(O)c2)C(O)C(O)C1O (stereo not given) [cyanidin 3 galactoside] |
| 18.4 | OCC1OC(Oc2cc3c(OC4OC(CO)C(O)C(O)C4O)cc(O)cc3[o+]c2-c2ccc(O)c(O)c2)C(O)C(O)C1O (stereo not given) [cyanidin-3,5-diglucoside] |
| 23.1 | Oc1cc(O)c2cc(OC3OCC(O)C(O)C3O)c(-c3ccc(O)c(O)c3)[o+]c2c1 (stereo not given) [cyanidin-3-arabinoside] |

| LC retention time [min] | Compound |
| --- | --- |
| 23.1 | CC1OC(OCC2OC(Oc3cc4c(O)cc(O)cc4[o+]c3-c3ccc(O)c(O)c3)C(O)C(O)C2O)C(O)C(O)C1O (stereo not given) [cyanidin-3-rutinoside] |
| 28.9 | Oc1cc(O)c2cc(O)c(-c3ccc(O)c(O)c3)[o+]c2c1 [cyanidin] |
| 32.5 | O=c1c(-c2ccc(O)cc2)coc2cc(O)ccc12 [daidzein] |
| 21.9 | CC1OC(OCC2OC(Oc3cc4c(O)cc(O)cc4[o+]c3-c3cc(O)c(O)c(O)c3)C(O)C(O)C2O)C(O)C(O)C1O (stereo not given) [delphinidin 3 rutinoside] |
| 20.9 | OCC1OC(Oc2cc3c(O)cc(O)cc3[o+]c2-c2cc(O)c(O)c(O)c2)C(O)C(O)C1O (stereo not given) [delphinidin-3-glucoside] |
| 27.1 | O=c1cc2oc(-c3cc(O)c(O)c(O)c3)c(O)cc-2c(O)c1 [delphinidin] |
| 27.8 | O=C1c2c(O)cc(O)cc2OC(c2ccc(O)cc2)C1O (stereo not given) [dihydrokaempferol] |
| 30.2 | O=c1oc2c(O)c(O)cc3c(=O)oc4c(O)c(O)cc1c4c23 [ellagic acid] |
| 46.4 | Cc1cc(O)c2c(c1)C(=O)c1cc(O)cc(O)c1C2=O [emodin] |
| 24.4 | Oc1ccc(C2Oc3cc(O)cc(O)c3CC2O)cc1 (stereo not given) [epiafzelechin] |
| 20.5 | Oc1cc(O)c2c(c1)OC(c1ccc(O)c(O)c1)C(O)C2 (stereo not given) [epicatechin] |
| 22.3 | O=C(OC1Cc2c(O)cc(O)cc2OC1c1cc(O)c(O)c(O)c1)c1cc(O)c(O)c(O)c1 (stereo not given) [epigallo-catechin gallate] |
| 16.5 | Oc1cc(O)c2c(c1)OC(c1cc(O)c(O)c(O)c1)C(O)C2 (stereo not given) [epigallocatechin] |
| 31 | O=C1CC(c2ccc(O)c(O)c2)Oc2cc(O)cc(O)c21 (stereo not given) [eriodictyol] |
| 23 | CCOC(=O)c1cc(O)c(O)c(O)c1 [ethyl gallate] |
| 37.4 | COc1ccc(-c2cc(=O)c3c(OC)c(OC)c(OC)cc3o2)cc1O [eupatorin-5-methylether] |
| 19.5 | COc1cc(C=CC(=O)OC(C(=O)O)C(O)C(=O)O)ccc1O (stereo not given) [fertaric acid] |
| 25.9 | COc1cc(/C=C/C(=O)O)ccc1O [ferulic acid] |
| 21.3 | Nc1nc2ncc(CNc3ccc(C(=O)NC(CCC(=O)O)C(=O)O)cc3)nc2c(=O)[nH]1 (stereo not given) [folic acid] |
